One assay relates to Ishikawa cells. Description: Ishikawa Cell Alkaline Phosphatase Assay. In kind it is cell-based. The conditions noted are these: Homo sapiens, 48 h. The protocol: Ishikawa Cell Alkaline Phosphatase Assay
Cell Maintenance and Treatment:
Ishikawa cells were maintained in DMEM/F12 (50%:50%) containing phenol red+10% fetal bovine serum and the medium was supplemented with 2 mM Glutamax, 1% Pen/Strap and 1 mM sodium pyruvate. Five days prior to the beginning of each experiment (treatment of cells) the medium was changed to phenol red-free DMEM/F12+10% dextran coated charcoal stripped serum. On the day before treatment, cells were harvested using 0.5% trypsin/EDTA and plated at a density of 5×10^4 cells/well in 96-well tissue culture plates. […] Cells were treat for 48 h prior to assay. […] Sample population for at each dose was n=8.
Alkaline Phosphatase Assay:
At the end of 48 h the media is aspirated and cells are washed three times with phosphate buffered saline (PBS). 50 μL of lysis buffer (0.1 M Tris-HCl, pH 9.8, 0.2% Triton X-100) is added to each well. Plates are placed at -80° C. for a minimum of 15 minutes. Plates are thawed at 37° C. followed by the addition of 150 μL of 0.1 M Tris-HCl, pH 9.8, containing 4 mM para-nitrophenylphosphate (pNPP) to each well (final concentration, 3 mM pNPP).
Absorbance and slope calculations were made using the KineticCalc Application program (Bio-Tek Instruments, Inc., Winooski, Vt.). Results are expressed as the mean±S.D. of the rate of enzyme reaction (slope) averaged over the linear portion of the kinetic reaction curve (optical density readings every 5 minutes for 30 minutes absorbance reading).
A description of these methods is described by Holinka, C.

The target of the next assay is T1, estrogen receptor (Homo sapiens, UniProt P03372).
T1 construct: made in house; host or cells: Chinese Hamster Ovary (CHO) cells, ribosome-free cytosol
T1 sequence (P03372 1-595): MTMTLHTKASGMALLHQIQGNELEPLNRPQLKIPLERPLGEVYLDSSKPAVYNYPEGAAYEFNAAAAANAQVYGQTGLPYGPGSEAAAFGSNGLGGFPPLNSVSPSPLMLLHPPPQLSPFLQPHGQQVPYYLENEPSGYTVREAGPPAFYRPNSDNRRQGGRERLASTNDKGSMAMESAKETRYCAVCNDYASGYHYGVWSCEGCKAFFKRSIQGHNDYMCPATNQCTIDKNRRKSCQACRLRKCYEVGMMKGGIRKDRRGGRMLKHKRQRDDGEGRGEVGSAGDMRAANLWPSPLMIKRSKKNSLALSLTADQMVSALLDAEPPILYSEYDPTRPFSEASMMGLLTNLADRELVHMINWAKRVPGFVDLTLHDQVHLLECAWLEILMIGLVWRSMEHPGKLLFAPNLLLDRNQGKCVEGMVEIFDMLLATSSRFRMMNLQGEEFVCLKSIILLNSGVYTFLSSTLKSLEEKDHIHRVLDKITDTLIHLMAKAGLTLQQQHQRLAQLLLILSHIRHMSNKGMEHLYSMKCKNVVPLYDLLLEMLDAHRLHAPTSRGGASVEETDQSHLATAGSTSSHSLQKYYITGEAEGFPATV
Description: In vitro estrogen receptor binding assay (competition with [^3 H]-17-β-estradiol). The protocol:
Cells were harvested by scraping the surface and then the cell suspension was placed on ice. […] The cytosol was then frozen and stored at -80° C. Protein concentration of the cytosol was estimated using the BCA assay with reference standard protein.
The plate was incubated at room temperature for 2.5 h. […] Samples were counted to 2% or 10 minutes, whichever occurs first. […] Also, wells containing radioactivity but no cytosol were processed with charcoal to estimate unremovable DPM of [^3 H]
For a description of these methods, see Hulme, E. C., ed. 1992. Receptor-Ligand Interactions: A Practical Approach. IRL Press, New York.(see especially chapter 8).

Another assay deals with T2, human estrogen receptor (Homo sapiens, UniProt P03372).
T2 construct: expressed in transfected cells
Put plainly: 2X VIT ERE Transfection Assay (luciferase, CHO cells stably transfected with human estrogen receptor). It counts as cell-based. The conditions noted are these: 24 h. Here is the method: 2X VIT ERE Transfection Assay
Cell Maintenance and Treatment
Chinese Hamster Ovary cells (CHO) which had been stably transfected with the human estrogen receptor were maintained in DMEM+10% fetal bovine serum (FBS). 48 h prior to treatment the growth medium was replaced with DMEM lacking phenol red+10% dextran coated charcoal stripped FBS (treatment medium). Cells were plated at a density of 5000 cells/well in 96-well plates containing 200 μL of medium/well.
Calcium Phosphate Transfection
Reporter DNA (Fromega plasmid pGL2 containing two tandem copies of the vitellogenin ERE in front of the minimal thymidine kinase promoter driving the luciferase gene) was combined with the β-galactosidase expression plasmid pCH110 (Pharmacia) and carrier DNA (pTZ18U) in the following ratio:
20 μg of DNA/1 mL of transfection solution
The DNA (20 μg) was dissolved in 500 μL of 250 mM sterile CaCl2 and added dropwise to 500 μL of 2X HeBS (0.28 M NaCl, 50 mM HEPES, 1.5 mM Na2 HPO4, pH 7.05) and incubated at room temperature for 20 minutes. 20 μL of this mixture was added to each well of cells and remained on the cells for 16 h. […] Each treatment condition was performed on 8 wells (n=8) which were incubated for 24 h prior to the luciferase assay.
After 24 h exposure to compounds, the media was removed and each well washed with 2X with 125 μL of PBS lacking Mg^++ and Ca^++. […] The luciferan substrate (Promega) was added in 100 μL aliquots to each well automatically by the luminometer and the light produced (relative light units) was read 10 seconds after addition.
To the remaining 5 μL of lysate 45 μL of PBS was added. […] The plates were analyzed on a Molecular Devices specrophotometric plate reader at 410 nm. […]
The luciferase data was generated as relative light units (RLUs) accumulated during a 10 second measurement and automatically transferred to a JMP (SAS Inc.) file where background RLUs were subtracted. […] The mean and standard deviations were determined from a n=8 for each treatment. […]

For a further assay, the system named is bone. The conditions noted are these: background statement; cited from earlier work.
The test system of another assay is uterus. The conditions noted are these: background statement; cited from earlier work.
Setting [1] is: Test articles at 10^-6 M, alone, percent of response related to 1 nM 17β-estradiol (control), read-out: % Activation.
Where [2] appears, read: Competition With 17-β-estradiol (0.8 nM), CHO cell cytosol.

Like-named read-outs stand apart in the source and are kept apart here.

Regarding `C[C@]12CC[C@@H]3c4ccc(O)cc4CC[C@H]3[C@@H]1CC[C@@H]2O` [17-β-estradiol, reference compound], the activation at 1 µM in the assay with Ishikawa cells (setting [1]) amounted to 100%.
Regarding `O=c1c2ccc(O)cc2nc(-c2ccc(O)cc2)n1-c1ccc(OCCN2CCCCC2)cc1` [Example 9, 7-Hydroxy-2-(4-hydroxy-phenyl)-3-{4-[2-(piperidin-1-yl)-ethoxy]-phenyl}-3H-quinazolin-4-one], the activation at 1 µM in the assay on Ishikawa cells (setting [1]) stood at 0%; on human estrogen receptor, 72%. Also, at estrogen receptor (read-out: IC50), the IC50 is 6.5 µM.
For `O=c1c2cccc(O)c2nc(-c2ccc(OCCN3CCCCC3)cc2)n1-c1ccc(O)cc1` [Example 16, 8-Hydroxy-3-(4-hydroxy-phenyl)-2-{4-[2-(piperidin-1-yl)-ethoxy]-phenyl}-3H-quinazolin-4-one], the activation at 1 µM stood at 0% with Ishikawa cells (setting [1]) and 14% at human estrogen receptor. In addition, the IC50 result on estrogen receptor (setting [2]) was “Binding not detected at upper limit of assay”.
Taken in the same sequence, the figures for `O=c1c2cccc(O)c2nc(-c2ccc(O)cc2)n1-c1ccc(OCCN2CCCCC2)cc1` [Example 21, 8-Hydroxy-2-(4-hydroxy-phenyl)-3-[4-(2-piperidin-1-yl-ethoxy)-phenyl]-3H-quinazolin-4-one] were 0%, 6% and “Binding not detected at upper limit of assay”.
For the compound `O=C(c1ccc(OCCN2CCCCC2)cc1)c1c(-c2ccc(O)cc2)sc2cc(O)ccc12` [Raloxifene], in the assay with Ishikawa cells (setting [1]), the activation at 1 µM worked out at 5%. Also, the effect on bone entry in the assay on bone is “sparing bone”. Also, in the assay with uterus, the “effect on the uterus” value is recorded as “stimulate uterine growth in animal models to a lesser degree than Tamoxifen”.
In the assay with Ishikawa cells, `CC/C(=C(\c1ccccc1)c1ccc(OCCN(C)C)cc1)c1ccccc1` [Tamoxifen] registered an activation at 1 µM of 0%. In addition, the effect on bone result in the assay with bone was “increase bone mass”. In addition, the “effect on the uterus” value with uterus is “partial agonist effects in the uterus”.

Values taken from patent US5948775A, “2- or 3-(substitutedaminoalkoxyphenyl)quinazolin-4-ones” (American Home Products Corporation, priority 1998, dated 1999).
